Assay results published in publication PMC6271731, “Multitarget Molecular Hybrids of Cinnamic Acids” (Molecules, 2014).
Marks after values point to notes of the source that are not given here.

What was measured:
[1] = Inhibition of linoleic acid lipid peroxidation (AAPH); settings: % inhibition at 100 μM; pH 7.4, 37 °C
Experimental: Production of conjugated diene hydroperoxide by oxidation of sodium linoleate in an aqueous dispersion is monitored at 234 nm. AAPH is used as a free radical initiator [12, 24]. Ten microlitres of the 16 mM sodium linoleate solution was added to the UV cuvette containing 930 μL of 0.05 M phosphate buffer, pH 7.4 prethermostated at 37 °C. The oxidation reaction was initiated at 37 °C under air by the addition of 40 mM AAPH solution (50 μL). Ten μL of the tested compounds were added in the mixture. Lipid oxidation was measured in the presence of the same level of DMSO. The rate of oxidation at 37 °C was monitored by recording the increase in absorption at 234 nm caused by conjugated diene hydroperoxides. The results were compared to the appropriate standard inhibitor trolox (63%) (Table 1).

[2] = system: acetic acid-induced writhing; assay: Antinociceptive screen (writhing test); type: in vivo, Wistar rats; settings: i.p. 30 min before 0.6% acetic acid, writhes counted over 30 min
Experimental: Anti-inflammatory tests were conducted on Fisher-344 inbred rats of ca. 200 g body weight whereas antinociception and motor and sensory functions after sciatic nerve crash were performed on Wistar rats. Both sexes were used. Females pregnant were excluded. Each group was composed of 6 animals. The animals, which have been bred in our laboratory, were housed under standard conditions and received a diet of commercial food pellets and water ad libitum during the maintenance. Our studies were carried out in accordance with recognised guidelines on animal experimentation.
[…] Controls received the liquid vehicle only. All the in vivo experiments were repeated at least in triplicate and were subjected to statistic analysis using the student’s t-test.
The writhing reflex was used. The test compounds were administered i.p. 30 min prior to the i.p. administration of 1 mL/100 g body weight of 0.6% acetic acid. […] After 5 min, the number of stretches characterized by repeated contractions of the abdominal musculature accompanied by extension of the hind limbs was counted every 5 min for the next 30 min. […] The % antinociceptive activity (a:a) was calculated as: % a:a = (n − n'/n) × 100 (a: a analgesic activity, n average number of writhes of control group, n' average number in the test group).

sciatic nerve crush [3] = assay: Sciatic Functional Index after sciatic nerve crush; type: in vivo, Wistar rats
Source text: SFI is the current standard for measuring functional recovery following rat sciatic nerve crush. Its calculation involves the measurement of wide-ranging relationships between feet and toes of the hindlimb of recovering animals. SFI values close to −100 indicate severe damage, while SFI values close to 0 indicate normal function. The treated rats improved their walk and the relationship between feet and toes of the crushed hindlimbs starting from day 14 to day 21.
(§1) One day prior to the surgery and the behavioral testing, Wistar rats were handled by the investigators and introduced to the testing environment for a brief period of time. Rats were anesthetized with chloral hydrate 4.5% (1 mL/100 g). […] After the exposure, the nerve was crushed once for 30 s at standardized force. The muscle was reapproximated and the skin incision was closed using 6 to 0 sutures. The examination of the loss of sensory and motor function in the operated limb established the crush completeness. Digits in the operated limb were pinched with a blunt forceps. Absence of foot withdrawal and vocalization was recorded as loss of sensory and motor function. Animals were placed under a heating lamp until they recovered from the anesthesia and they returned to their home cages.
(§2) The tested solutions were freshly prepared on surgery day (day 0).
[…] The day of the surgery is considered as day 0 [36, 37, 38].
In the present study, the plantar surfaces of the hindlimbs of the rats were impregnated with ink and then the animals were allowed to walk on a paper along a corridor, leaving footprints during walking.
A wooden corridor (1 m × 8 cm) with raised sidewalls was used. Two and a half white paper strips (40 × 7.5 cm) were placed along the corridor and were fixed with adhesive tape closely together and at the base and the sidewalls of the corridor. Each rat was trained to walk steadily along the corridor without stops until it made three at least successful efforts of continuous walking. The footprints were allowed to dry and were then converted into digital images using a computer and a high resolution scanner. The image processing was done by using the ImageJ. This is an open-source image analysis software created in 1997 by Rayne Rasband (National Institute of Health), widely used in medical applications, especially neuroscience, for measuring distances and surface and plotting the data. The footprints were analyzed as described by Bain et al. in measurements were included: • (i) print length (PL): distance from the heel to the third toe, • (ii) toe spread (TS) distance from the first to the fifth toe on both sides and • (iii) intermediate toe spread (ITS) the distance between the middle of the second and fourth toe
All measurements were taken both from the experimental (EPL, ETS, EIT) and the normal (NPL, NTS, NIT) side. The formula used to calculate SFI was the following: SFI = −38.3 (EPL − NPL)/NPL + 109.5 (ETS − NTS)/NTS + 13.3 (EIT − NIT)/NIT − 8.8

[4] = In vitro stability under acidic and basic conditions; type: physicochemical; settings: pH 3, 4.5 and 9, 37 °C, 24 h
Experimental: In an attempt to mimic the acidic/basic conditions in the gastrointestinal route, measurements at pH: (i) 3; (ii) 4.5 and (iii) 9 were performed. The pH value was adjusted with the appropriate buffer (CH3COONa/CH3COOH) to 4.5 and 3 and Tris to pH 9. 20 μL of the tested compounds in DMSO and buffer 980 μL (4.5 or 3 pH) incubated at 37 °C for 24 h. The stability of the compounds was monitored chromatographically after 3 and 9 h. After 24 h, the incubated solution (in all cases) was treated with chloroform (1 mL). The organic layer was analyzed spectrophotometrically.

sciatic nerve crush [5] = assay: Flat runway test after sciatic nerve crush; type: in vivo, Wistar rats; set-up: key: 0: No movement; 1: Mild movement; 2: Walking with mild deficit; 3: Nearly normal; settings: crushed animals treated with 2a, day 1 to day 21
Experimental: (§3) The locomotor function recovery was examined through the flat runway test, the inclined plane runway test, the grid walking test and the Sciatic Functional Index (SFI) calculation.
as §1, §2
(§4) The animals were subjected to a locomotor testing one day before the surgery and on the 1st, 8th, 15th and 22nd day after the sciatic nerve injury. The day of the surgery is considered as day 0 [36, 37, 38].
Rats were trained to walk on a wooden board (1 m × 15 cm) for 120 s. The hindlimb movement was assessed with the scoring mentioned before.

sciatic nerve crush [6] = assay: Recovery of motor and sensory functions after sciatic nerve crush; type: in vivo, Wistar rats; settings: adult rats, intraperitoneally after the compression of the nerve
Experimental: as §3, §1, §2, §4

[7] = single i.p. dose 0.01 mmol/mL/kg, 8 h after surgery

SMILES: CC(=O)Nc1ccc(OC(=O)/C=C/c2cccc(Oc3ccccc3)c2)cc1 [Compound 2a, (E)-4-Acetamidophenyl 3-(3-phenoxyphenyl)acrylate]
- AAPH % (% inhibition of lipid peroxidation) [1]: 90%
- % ANA (in vivo analgesic-antinociceptive activity) ([2]; 0.01 mmol/0.1 kg): 91 ** %
- inhibition in vivo at 0.01 mmol/0.1 kg ([2]; Rattus norvegicus, ip, 0.5 h, read-out: % ANA (in vivo analgesic-antinociceptive activity)): 91%
- SFI, Day before Crash (sciatic nerve crush [3]; baseline before surgery and dosing): −10.26
- SFI, Day-1 (sciatic nerve crush [3]; [7]): −93.3
- SFI, Day-7 (sciatic nerve crush [3]; [7]): −93.3
- SFI, Day-14 (sciatic nerve crush [3]; [7]): −35.45
- SFI, Day-21 (sciatic nerve crush [3]; [7]): −20.06
- stability under acidic and basic conditions [4]: confirmed the stability
- Flat runway score (movement in hindlimb) (sciatic nerve crush [5]): 3
- recovering motor and sensory functions (sciatic nerve crush [6]): effective in recovering motor and sensory functions
